How the values were obtained:
Assay type in all cases: cell-based
Prevotella intermedia [1] = test: Phenotype microarray metabolic activity; settings: control = 1
Description: (§1) The extent of metabolic activity of the tested bacteria in the presence of the above-mentioned glycosides after 24 hours and 48 hours was investigated through a high throughput phenotype microarray system (PM) for microbial cells (Biolog Inc.). Each PM can contain up to 95 different biochemical compounds (e.g. glycosides) that may act as substrates for bacteria as well as one negative control, not containing the substrates. Microarray plates were used in which the different wells of each plate were pre-loaded (by the manufacturer, Biolog Inc.) with different glycosides to be tested. Each bacterial species was tested using a separate microarray plate. Thus, a single bacterial species was tested with a variety of glycosides on each particular plate. The microarrays are based on redox technology, using cell respiration as a universal reporter. Active cell respiration results in the reduction of a tetrazolium dye and in the formation of a strong color—for example, when using the tetrazolium dye “Biolog Redox Dye Mix D”, the color changes from transparent/colorless to purple when the dye is reduced. The observation of this color change indicates which of the substrates improve the metabolic activity and health of the cells. Each bacterial species was collected from blood agar plates (incubated for 48 hours anaerobically at 37° C.) and transferred to an IF-0 Base inoculation fluid (Biolog Inc.), which is a nutritionally poor medium. The resulting cell suspension was adjusted to a transmittance of 42% (relative to the transmittance of the base inoculation fluid with no bacterial species present) at 492 nm using a BioRad SmartSpec 3000 Photometer (the adjustment being effected by adding either further inoculation fluid or further bacteria until the transmittance of 42% was achieved). A 1:5 dilution of this suspension was prepared by mixing 3 mL of the 42% transmittance cell suspension with […] of an inoculation fluid (which inoculation fluid was formed by mixing 11.6 mL sterile water, 62.5 mL IF-0 base inoculation fluid and 0.9 mL of the tetrazolium dye “Biolog Redox Dye mix D”), resulting in a final cell density which was equal to 85% transmittance using a BioRad SmartSpec 3000 Photometer. For each of the glycosides tested, the microarray plate (obtained from the supplier (Biolog Inc.) with glycosides already present in the relevant wells in powder form) was directly inoculated with 100 μL/well of this 85% transmittance cell suspension. All plates were incubated in an anaerobic atmosphere at 37° C. Color changes were measured spectrophotometrically at 492 nm (Thermo Scientific Multiskan Ascent) at 24 hrs and 48 hrs using the same plate at both time points. […] After 24 hrs and 48 hrs under continuous shaking in a Multiscan microplate reader, the optical density (OD) of the synthetic medium at 24 hours and 48 hours was measured (using the microplate reader) at a wavelength of 492 nm for each combination of bacterium/glycoside, and for each of their respective controls (i.e. which contained the particular bacterium but no glycosides). […] The experiment was carried out three times for each combination of bacterium with glycosides, with each repeat being carried out on a different day (thus providing three biological replicas). The controls were also carried out three times, as above. The values shown are the average (mean) of the three single values obtained (as detailed above) for each combination of bacterium with glycosides, at 24 hrs and at 48 hrs.

Actinomyces naeslundii [2] = test: Phenotype microarray metabolic activity; settings: control = 1
Description: as §1

Streptococcus mitis = test: Twenty-four hour optical density growth in BHI; settings: over 24 hours, control = 1
Description: (§2) The extent of growth of the tested bacteria in response to selected glycosides (β-methyl-D-galactoside and α-methyl-D-galactoside) was investigated by setting up growth curves in a nutritionally rich medium (brain heart infusion broth (BHI), Oxoid), over 24 hours. Late exponential growth phase liquid cultures were prepared by transferring the respective bacterium from blood agar plates to BHI and overnight incubation at 37° C. in an anaerobic atmosphere for A. viscosus, V. parvula, F. nucleatum, P. gingivalis, P. intermedia, T. forsythia, A. naeslundii, and C. sputigena, and in a 5% CO2 environment for S. salivarius, S. sanguinis, S. mitis, A. actinomycetemcomitans, S. mutans, S. sobrinus and S. gordonii. Overnight cultures were transferred to BHI and adjusted to a concentration of 1×10^7 CFU/ml (colony forming units per ml) by measuring the optical density at 600 nm (OD600) (BioRad SmartSpec 3000). For each strain, 200 μl of the bacterial suspension was added to a 96-well plate containing 20 μl of the respective glycosides. Final concentrations of the glycosides were set to 5, 10, 20 and 25 μmol/ml. […] Plates were incubated as previously described. For each combination of bacterium/glycoside, and for each of their respective controls (i.e. the particular bacterium in the nutritionally rich medium with no glycoside), the optical density was measured at 630 nm (OD630) at 0 h and 24 h (Thermo Scientific Multiskan Ascent). Additionally, the OD630 for combinations of bacterium/glycosides grown in a 5% CO2 environment were also measured every hour between 0 h and 9 h. […] The experiment was carried out on three different days (thus providing 3 biological replicas) and on each day the experiment was carried out in quadruple (thus providing 4 technical replicas) for each combination of bacterium with glycoside and for each control. For each day and for each combination, the average (mean) of the values obtained (as detailed above) for the four technical replicas was calculated to provide a single value for each combination on each day. The values shown in Tables 5 to 6, below, are the average (mean) of the three single values obtained for each combination of bacterium with glycoside (α-Methyl-D-Galactoside=α-MDG; β-Methyl-D-Galactoside=β-MDG).

Veillonella parvula = test: Twenty-four hour optical density growth in BHI; settings: over 24 hours, control = 1
Description: as §2

Porphyromonas gingivalis = test: Twenty-four hour optical density growth in BHI; settings: over 24 hours, control = 1
Description: as §2

Streptococcus sobrinus = test: Twenty-four hour optical density growth in BHI; settings: over 24 hours, control = 1
Description: as §2

Tannerella forsythia = test: Twenty-four hour optical density growth in BHI; settings: over 24 hours, control = 1
Description: as §2

Prevotella intermedia [3] = test: Twenty-four hour optical density growth in BHI; settings: over 24 hours, control = 1
Description: as §2

[4] = system: Aggregatibacter actinomycetemcomitans; test: Twenty-four hour optical density growth in BHI; settings: over 24 hours, control = 1
Description: as §2

Actinomyces naeslundii [5] = test: Twenty-four hour optical density growth in BHI; settings: over 24 hours, control = 1
Description: as §2

CO[C@H]1O[C@H](CO)[C@H](O)[C@H](O)[C@H]1O [α-methyl-D-galactoside]
OD 492 nm divided by control (metabolic activity) (Prevotella intermedia [1]; 24 hrs): 0.9609
OD 492 nm divided by control (metabolic activity) (Prevotella intermedia [1]; 48 hrs): 0.9269
OD 492 nm divided by control (metabolic activity) (Actinomyces naeslundii [2]; 24 hrs): 2.1644
OD 492 nm divided by control (metabolic activity) (Actinomyces naeslundii [2]; 48 hrs): 2.8156
maximal OD630 divided by control (extent of growth) (Streptococcus mitis; 5 μmol/ml): 0.9303
maximal OD630 divided by control (extent of growth) (Streptococcus mitis; 10 μmol/ml): 0.9337
maximal OD630 divided by control (extent of growth) (Streptococcus mitis; 20 μmol/ml): 0.8843
maximal OD630 divided by control (extent of growth) (Streptococcus mitis; 25 μmol/ml): 0.8855
maximal OD630 divided by control (extent of growth) (Veillonella parvula; 5 μmol/ml): 0.9160
maximal OD630 divided by control (extent of growth) (Veillonella parvula; 10 μmol/ml): 0.9528
maximal OD630 divided by control (extent of growth) (Veillonella parvula; 20 μmol/ml): 0.9141
maximal OD630 divided by control (extent of growth) (Veillonella parvula; 25 μmol/ml): 0.9326
maximal OD630 divided by control (extent of growth) (Porphyromonas gingivalis; 5 μmol/ml): 0.9298
maximal OD630 divided by control (extent of growth) (Porphyromonas gingivalis; 10 μmol/ml): 0.9747
maximal OD630 divided by control (extent of growth) (Porphyromonas gingivalis; 20 μmol/ml): 0.9132
maximal OD630 divided by control (extent of growth) (Porphyromonas gingivalis; 25 μmol/ml): 0.9353
maximal OD630 divided by control (extent of growth) (Streptococcus sobrinus; 5 μmol/ml): 0.9005
maximal OD630 divided by control (extent of growth) (Streptococcus sobrinus; 10 μmol/ml): 0.8975
maximal OD630 divided by control (extent of growth) (Streptococcus sobrinus; 20 μmol/ml): 0.8858
maximal OD630 divided by control (extent of growth) (Streptococcus sobrinus; 25 μmol/ml): 0.9052
maximal OD630 divided by control (extent of growth) (Tannerella forsythia; 5 μmol/ml): 0.9724
maximal OD630 divided by control (extent of growth) (Tannerella forsythia; 10 μmol/ml): 0.9898
maximal OD630 divided by control (extent of growth) (Tannerella forsythia; 20 μmol/ml): 0.9846
maximal OD630 divided by control (extent of growth) (Tannerella forsythia; 25 μmol/ml): 1.0112
maximal OD630 divided by control (extent of growth) (Prevotella intermedia [3]; 5 μmol/ml): 0.9203
maximal OD630 divided by control (extent of growth) (Prevotella intermedia [3]; 10 μmol/ml): 0.9043
maximal OD630 divided by control (extent of growth) (Prevotella intermedia [3]; 20 μmol/ml): 0.8637
maximal OD630 divided by control (extent of growth) (Prevotella intermedia [3]; 25 μmol/ml): 0.8498
maximal OD630 divided by control (extent of growth) ([4]; 5 μmol/ml): 0.7382
maximal OD630 divided by control (extent of growth) ([4]; 10 μmol/ml): 0.7398
maximal OD630 divided by control (extent of growth) ([4]; 20 μmol/ml): 0.7462
maximal OD630 divided by control (extent of growth) ([4]; 25 μmol/ml): 0.7395
maximal OD630 divided by control (extent of growth) (Actinomyces naeslundii [5]; 5 μmol/ml): 0.9762
maximal OD630 divided by control (extent of growth) (Actinomyces naeslundii [5]; 10 μmol/ml): 0.9994
maximal OD630 divided by control (extent of growth) (Actinomyces naeslundii [5]; 20 μmol/ml): 0.9595
maximal OD630 divided by control (extent of growth) (Actinomyces naeslundii [5]; 25 μmol/ml): 0.9481

CO[C@@H]1O[C@H](CO)[C@H](O)[C@H](O)[C@H]1O [β-methyl-D-galactoside]
OD 492 nm divided by control (metabolic activity) (Prevotella intermedia [1]; 24 hrs): 1.0543
OD 492 nm divided by control (metabolic activity) (Prevotella intermedia [1]; 48 hrs): 1.0046
OD 492 nm divided by control (metabolic activity) (Actinomyces naeslundii [2]; 24 hrs): 1.5393
OD 492 nm divided by control (metabolic activity) (Actinomyces naeslundii [2]; 48 hrs): 1.9886
maximal OD630 divided by control (extent of growth) (Streptococcus mitis; 5 μmol/ml): 0.8435
maximal OD630 divided by control (extent of growth) (Streptococcus mitis; 10 μmol/ml): 0.8256
maximal OD630 divided by control (extent of growth) (Streptococcus mitis; 20 μmol/ml): 0.9114
maximal OD630 divided by control (extent of growth) (Streptococcus mitis; 25 μmol/ml): 0.8116
maximal OD630 divided by control (extent of growth) (Veillonella parvula; 5 μmol/ml): 0.8912
maximal OD630 divided by control (extent of growth) (Veillonella parvula; 10 μmol/ml): 0.9129
maximal OD630 divided by control (extent of growth) (Veillonella parvula; 20 μmol/ml): 0.9145
maximal OD630 divided by control (extent of growth) (Veillonella parvula; 25 μmol/ml): 0.9462
maximal OD630 divided by control (extent of growth) (Porphyromonas gingivalis; 5 μmol/ml): 0.8852
maximal OD630 divided by control (extent of growth) (Porphyromonas gingivalis; 10 μmol/ml): 0.9738
maximal OD630 divided by control (extent of growth) (Porphyromonas gingivalis; 20 μmol/ml): 0.9498
maximal OD630 divided by control (extent of growth) (Porphyromonas gingivalis; 25 μmol/ml): 0.9364
maximal OD630 divided by control (extent of growth) (Streptococcus sobrinus; 5 μmol/ml): 0.8914
maximal OD630 divided by control (extent of growth) (Streptococcus sobrinus; 10 μmol/ml): 0.8818
maximal OD630 divided by control (extent of growth) (Streptococcus sobrinus; 20 μmol/ml): 0.9110
maximal OD630 divided by control (extent of growth) (Streptococcus sobrinus; 25 μmol/ml): 0.9111
maximal OD630 divided by control (extent of growth) (Tannerella forsythia; 5 μmol/ml): 0.9652
maximal OD630 divided by control (extent of growth) (Tannerella forsythia; 10 μmol/ml): 0.9920
maximal OD630 divided by control (extent of growth) (Tannerella forsythia; 20 μmol/ml): 0.9847
maximal OD630 divided by control (extent of growth) (Tannerella forsythia; 25 μmol/ml): 1.0042
maximal OD630 divided by control (extent of growth) (Prevotella intermedia [3]; 5 μmol/ml): 0.9000
maximal OD630 divided by control (extent of growth) (Prevotella intermedia [3]; 10 μmol/ml): 0.8909
maximal OD630 divided by control (extent of growth) (Prevotella intermedia [3]; 20 μmol/ml): 0.9071
maximal OD630 divided by control (extent of growth) (Prevotella intermedia [3]; 25 μmol/ml): 0.9102
maximal OD630 divided by control (extent of growth) ([4]; 5 μmol/ml): 0.7099
maximal OD630 divided by control (extent of growth) ([4]; 10 μmol/ml): 0.7723
maximal OD630 divided by control (extent of growth) ([4]; 20 μmol/ml): 0.7373
maximal OD630 divided by control (extent of growth) ([4]; 25 μmol/ml): 0.7472
maximal OD630 divided by control (extent of growth) (Actinomyces naeslundii [5]; 5 μmol/ml): 0.9746
maximal OD630 divided by control (extent of growth) (Actinomyces naeslundii [5]; 10 μmol/ml): 0.9516
maximal OD630 divided by control (extent of growth) (Actinomyces naeslundii [5]; 20 μmol/ml): 0.9705
maximal OD630 divided by control (extent of growth) (Actinomyces naeslundii [5]; 25 μmol/ml): 0.9802
